Experimental data reported in article PMC11085086, “Microwave-Assisted Atom Transfer Radical Cyclization in the Synthesis of 3,3-Dichloro-γ- and δ-Lactams from N-Alkenyl-Tethered Trichloroacetamides Catalyzed by RuCl2(PPh3)3 and Their Cytotoxic Evaluation” (Molecules, 2024).
≈ marks a conversion by molar mass, not a printed value. Values belong to the compound of their own block, whether it stands above or below them.

Assays:
[1] = tested on: human breast adenocarcinoma (MCF-7) cell line; experiment: Cell viability assay, NRU endpoint, MCF-7; assay type: cell-based; settings: Homo sapiens, MCF7, 24 h incubation, 10–250 µg/mL
Protocol: (§1) The murine Swiss albino fibroblasts (3T3), the human breast adenocarcinoma (MCF-7), the human epithelial carcinoma (HeLa) and the squamous cell carcinoma (A431) cell lines were obtained from Celltec UB. Cells were grown in DMEM medium (4.5 g/L glucose) supplemented with 10% (v/v) FBS, 2 mM L-glutamine, 100 U/mL penicillin and 100 µg/mL streptomycin at 37 °C, 5% CO2. Cells were routinely cultured in 75 cm^2 culture flasks and were trypsinized using trypsin–EDTA when the cells reached approximately 80% confluence. The trypan blue assay, which allows for a direct identification and enumeration of the live (unstained) and dead (blue) cells in the cell population, was used to evaluate the viability of the cells in the cell suspension obtained.
(§2) 3T3 (1 × 10^5 cells/mL), A431, HeLa and MCF-7 cells (5 × 10^4 cells/mL) were grown at defined densities in the 60 central wells of a 96-well plate. Cells were incubated for 24 h in 5% CO2 at 37 °C. Then, the spent medium was removed, and cells were incubated for 24 h with their corresponding compound solutions (1 mg/mL) previously diluted in a minimum amount of DMF (dimethylformamide) and then in DMEM medium supplemented with 5% FBS (100 µL) at the required concentration range (10–250 µg/mL). The viability of the cells upon incubation with the lactam derivatives was assayed using 2 different endpoints: NRU and MTT.
(§3) The neutral red uptake (NRU) assay is based on the accumulation of dye in the lysosomes of viable cells. After the cells were incubated for 24 h with the corresponding systems, the medium was removed, and the solutions were incubated with the NR dye (Sigma-Aldrich, St. Louis, MO, USA) solution (50 µg/mL) dissolved in the medium, without FBS and without phenol red (Lonza, Verviers, Belgium), for 3 h. Cells were then washed with sterile PBS, followed by the addition of 100 µL of a solution containing 50% absolute ethanol and 1% acetic acid in distilled water to extract the dye. To promote the total dissolution of the dye, plates were placed in a microtiter-plate shaker for 5 min at room temperature. The absorbance of the resulting solutions was measured at 550 nm (Bio-Rad 550 microplate reader, Bio-Rad California, Hercules, CA, USA). Finally, the effect of each treatment was calculated as the percentage of dye uptake by viable cells relative to the control cells (cells without any treatment).
(§4) The corresponding half-maximal inhibitory concentration (IC50) values for the different formulations as a function of the cell line and endpoint were determined from the fitting of concentration-dependent viability curves. The corresponding selectivity indexes toward tumoral cells were calculated using the following ratio: SI = IC50 (non-tumoral cell line)/IC50 (tumoral cell line) where 3T3 fibroblasts were used as close representative cells under non-tumoral conditions. Moreover, pseudo selectivity indexes toward tumoral cells were calculated considering the discrete cellular responses at the maximum tested concentration (250 µg/mL).

[2] = Cell viability assay, NRU endpoint, cell line not specified; assay type: cell-based; settings: up to 250 µg/mL, read-out: minimum cell viability values
Protocol: as §1, §2, §3

[3] = tested on: human epithelial carcinoma (HeLa) cell line; experiment: Cell viability assay, MTT endpoint, HeLa; assay type: cell-based
Protocol: as §1, §2
(§5) Only living cells can reduce the yellow tetrazolium salt 3-(4,5-dimethyl-2-thiazolyl)-2,5-diphenyltetrazolium bromide (MTT) to insoluble purple formazan crystals. After a 24 h incubation of the cells with their corresponding NPs, the medium was removed and 100 µL of MTT (Sigma-Aldrich, St. Louis, USA) in PBS (5 mg/mL) diluted 1:10 in culture medium without phenol red and without FBS (Lonza, Verviers, Belgium) was added to the cells. After 3 h of incubation, the medium was removed. Thereafter, 100 µL of DMSO (Sigma-Aldrich, St. Louis, MO, USA) was added to each well to dissolve the purple formazan crystals. Agitation and determination of the absorbance of the extracted solution were performed under the same conditions as described in NRU Assay section. Finally, the effect of each treatment was calculated as the percentage of tetrazolium salt’s reduction by viable cells relative to control cells (cells without any treatment).
as §4

[4] = Cell viability assay, MTT endpoint, HeLa; assay type: cell-based, human; settings: human, HeLa cells, HeLa, 250 µg/mL, 24 h
Protocol: as §1, §2, §5, §4

[5] = Cell viability assay, MTT endpoint, 3T3; assay type: cell-based, murine; settings: mouse, 3T3 fibroblasts, 3T3, 250 µg/mL, 24 h
Protocol: as §1, §2, §5, §4

[6] = tested on: murine Swiss albino fibroblasts (3T3); experiment: Cell viability assay, MTT endpoint, 3T3; assay type: cell-based; settings: Mus musculus, Fibroblast, 3T3, 24 h incubation, 10–250 µg/mL
Protocol: as §1, §2, §5, §4

[7] = tested on: 3T3, A431, HeLa and MCF-7 cell lines; experiment: Cell viability assays (MTT and NRU), endpoint and cell line not specified; assay type: cell-based; settings: range over cell lines; read-out: lowest IC50 values as a function of cell line
Protocol: as §1, with “The trypan blue assay, which allows for a direct identification and enumeration of the live (unstained) and dead (blue) cells in the cell population, was used to evaluate the viability of the cells in the cell suspension obtained.” left out
The neutral red uptake (NRU) assay is based on the accumulation of dye in the lysosomes of viable cells. […] The absorbance of the resulting solutions was measured at 550 nm (Bio-Rad 550 microplate reader, Bio-Rad California, Hercules, CA, USA). Finally, the effect of each treatment was calculated as the percentage of dye uptake by viable cells relative to the control cells (cells without any treatment).
Only living cells can reduce the yellow tetrazolium salt 3-(4,5-dimethyl-2-thiazolyl)-2,5-diphenyltetrazolium bromide (MTT) to insoluble purple formazan crystals. […] Agitation and determination of the absorbance of the extracted solution were performed under the same conditions as described in NRU Assay section. Finally, the effect of each treatment was calculated as the percentage of tetrazolium salt’s reduction by viable cells relative to control cells (cells without any treatment). […]

[8] = tested on: squamous cell carcinoma (A431) cell line; experiment: Cell viability assay, NRU endpoint, A431; assay type: cell-based; settings: A431 compared to 3T3, 250 µg/mL, 24 h
Protocol: as §1, §2, §3, §4

[9] = tested on: human epithelial carcinoma (HeLa) cell line; experiment: Cell viability assay, NRU endpoint, HeLa; assay type: cell-based; settings: 24 h incubation, 10–250 µg/mL
Protocol: as §1, §2, §3, §4

[10] = tested on: squamous cell carcinoma (A431) cell line; experiment: Cell viability assay, MTT endpoint, A431; assay type: cell-based
Protocol: as §1, §2, §5, §4

[11] = Cell viability assay, MTT endpoint, A431; assay type: cell-based; settings: human, A431 squamous cell carcinoma cells, A431, highest assayed concentration 250 µg/mL, 24 h
Protocol: as §1, §2, §5, §4

[12] = Hemolysis assay with human erythrocyte suspension; assay type: cell-based; settings: human, washed human erythrocyte suspension, PBS pH 7.4, read-out: degree of hemolysis
Protocol: Human blood samples were obtained from the Banc de Sang i Teixits de Barcelona (Spain) from the Catalan Department of Health. Blood was deposited in tubes with the anticoagulant EDTA-K3. Blood samples were centrifuged at 3000 rpm and 4 °C for 10 min (Megafuge 2.0 R. Heraeus Instruments, Hanau, Germany) to induce sedimentation. Plasma was extracted with a Pasteur pipette. Next, the residual pellet was washed with PBS at pH 7.4. This procedure was repeated three times to remove residual leukocytes and platelets and to concentrate the erythrocytes. Following the last wash, the erythrocyte suspension was diluted (1:1) in PBS at pH 7.4 to obtain a suitable erythrocyte suspension (cell density of 8 × 10^9 cell/mL).
The hemolysis assay determined the capability of different compounds to induce the hemolysis of the erythrocyte membrane. Stock solutions of each compound at 1 mg/mL in PBS at pH 7.4 were prepared. Different volumes (10–80 μL) were placed in polystyrene tubes, and an aliquot of 25 µL of the erythrocyte suspensions was added to each tube. The final volume was 1 mL. The tubes were incubated at room temperature under rotatory conditions. Then, the tubes were centrifuged at 10,000 rpm for 5 min. The supernatants’ absorbance at 540 nm (Shimadzu UV-160A, Shimadzu, Duisburg, Germany) was compared with that of the positive (erythrocytes hemolyzed with distilled water) and negative (erythrocyte suspension in PBS at pH 7.4.) controls.
The degree of hemolysis was determined using the following equation:Hemolysis (%) = 100 × (Abs − Abs0)/(Abs100 − Abs0) where Abs, Abs0 and Abs100 are the absorbance of the test samples, of the suspension treated with isotonic phosphate–buffered saline (PBS) and of the suspension of complete hemolysis treated with distilled water, respectively.

[13] = tested on: human breast adenocarcinoma (MCF-7) cell line; experiment: Cell viability assay, MTT endpoint, MCF-7; assay type: cell-based; settings: MTT
Protocol: as §1, §2, §5, §4

[14] = tested on: murine Swiss albino fibroblasts (3T3); experiment: Cell viability assay, NRU endpoint, 3T3; assay type: cell-based; settings: Mus musculus, Fibroblast, 3T3, 24 h incubation, 10–250 µg/mL
Protocol: as §1, §2, §3, §4

melting point: 116 to 118 °C
Structure (SMILES): O=C1N(Cc2ccccc2)[C@@H]2CC[C@@H](Cl)[C@@H](C2)C1(Cl)Cl (racemic) [2k, (1RS,5RS,6RS)-2-Benzyl-4,4,6-trichloro-2-azabicyclo[3.3.1] nonan-3-one]

melting point: 113 to 114 °C
Structure (SMILES): C[C@@H](Cl)[C@H]1CN(C(C)(C)C)C(=O)C1(Cl)Cl (racemic) [epi-2g, (RS)-1-(tert-Butyl)-3,3-dichloro-4-((RS)-1-chloroethyl)pyrrolidin-2-one]

IC50 [1]: > 250 µg/mL
MTT IC50 Hela ([3]; HeLa, 24 h incubation, 10–250 µg/mL): 109 µg/mL
IC50 ([3]; Homo sapiens, HeLa, 24 h, 24 h incubation, 10–250 µg/mL): 195 µg/mL (≈ 754 µM)
IC50 [9]: > 250 µg/mL
MTT IC50 A431 ([10]; A431, 24 h incubation, 10–250 µg/mL): 126 µg/mL
IC50 ([10]; Homo sapiens, A-431, 24 h, A431, 24 h incubation, 10–250 µg/mL): 192 µg/mL (≈ 743 µM)
IC50 ([13]; Homo sapiens, MCF7, 24 h incubation, 10–250 µg/mL): > 250 µg/mL
Structure (SMILES): CC(C)(C)N1CC(CCl)C(Cl)(Cl)C1=O (centres unmarked) [2a, 1-(tert-Butyl)-3,3-dichloro-4-(chloromethyl)pyrrolidin-2-one]
viability at 24 h [2]: 30%
MTT SI HeLa ([3]; SI = IC50 (3T3)/IC50 (HeLa)): < 1
viability at 24 h, 250 µg/mL [4]: 15%
viability at 24 h, 250 µg/mL [5]: 15%
IC50 [6]: 172 µg/mL (≈ 665 µM)
IC50 [7]: 100 to 250 µg/mL (≈ 387 to 967 µM)
SI250 (selective toxicity at 250 µg/mL) [8]: 2.2
SI250 (selective toxicity at 250 µg/mL) ([10]; A431 compared to 3T3, 250 µg/mL, 24 h): 3.3
MTT SI A431 ([10]; SI = IC50 (3T3)/IC50 (A431)): 1.4
viability at 24 h, 250 µg/mL [11]: 5%
hemolysis at 10 µg/mL ([12]; 10 µg/mL): 0.02%
hemolysis at 80 µg/mL ([12]; 80 µg/mL): ~0.07%
MTT SI MCF7 ([13]; SI = IC50 (3T3)/IC50 (MCF7)): <0.69
IC50 [14]: > 250 µg/mL
